How the values were obtained:
L1210 leukemia = test: Survival of mice bearing L1210 leukemia, Pt-268 alone (LD50, optimal dose, therapeutic safety ratio); type: in vivo, mice (BDF1)
Experimental: Mice received 10^6 L1210 cells on Day 0 via intraperitoneal route. Pt-268 was given intraperitoneally on Day 1 only in 5% glucose solution.
Mice received 10^6 L1210 cells on Day 0 via intraperitoneal route. Pt-268 was given intraperitoneally on Days 1, 5, and 9 in 5% glucose solution.
The BDF1 mice received 10^6 L1210 leukemia cells by I.P. injection on Day 0 and were divided into groups of 10, including a control group of 40 mice. The treated groups were treated on Day 1 only at different dose levels from 10 mg/kg to 200 mg/kg or treated on Days 1, 5, and 9 at dose levels from 2.5 mg/kg to 50 mg/kg.

L1210 cells = test: Combination of Pt-268 with cisplatin in mice bearing L1210 leukemia (FIG. 4); type: in vivo, BDF1 mice; settings: 5 mg/kg on Day 3, alone
Experimental: Mice were given an inoculum of 10^6 L1210 cells.
With reference to FIG. 4, BDF1 mice were given an inoculum of 10^6 L1210 cells. On Day 3, one grop received NSC-314926, 5 mg/kg. […] Another group received the two drugs in combination on the same schedule.

[1] = test system: Ehrlich ascites carcinoma; test: Survival times of BDF1 mice bearing the Ehrlich ascites carcinoma; type: in vivo; settings: Day 1 only; for T/C × 100: treated/control survival time
Description: In addition to testing with L1210 leukemia, satisfactory responses against tests by additional animal cancer organisms have been shown as, for example, Ehrlich ascites tumor, melanoma B-16 and Colon 38. Testing was achieved using either the alkali metal (sodium) salt or the free acid.
Mice received an intraperitoneal inoculation of 10^7 tumor cells on Day 0; treatment was by the intraperitoneal route on Day 1 only. NSC-314926 [N-phosphonacetyl-L-aspartato(1,2-diaminocyclohexane)platinum(II)] was dissolved in 5% dextrose solution. There were 10 mice per group.

Solubility [2] = type: physicochemical
Experimental: One ml of each of the following solvents dissolved approximately 2 mg of Pt-268: […]

Solubility [3] = type: physicochemical; remark: listed apart in the source

Substance: N-phosphonacetyl-L-aspartato(1,2-diaminocyclohexane)platinum(II), Na [Pt-268]
- therapeutic safety ratio (LD50/OptD50) (L1210 leukemia; I.P. LD50 / I.P. dose which is 50% of the optimal therapeutic dose): 4.5
- optimal therapeutic dose (L1210 leukemia; L1210, I.P., Day 1 only, 5% glucose): approximately 80 mg/kg
- optimal dose (L1210 leukemia; L1210, I.P., Days 1, 5, and 9, 5% glucose): approximately 20 mg/kg
- LD50 (L1210 leukemia; tumored BDF1 mice (10^6 L1210 cells I.P.)): 180 mg/kg
- effect on median life span, single agent (L1210 cells): hardly effective
- Survival Time ([1]; 5 mg/kg I.P.): 16.5 days
- T/C × 100 ([1]; 5 mg/kg I.P.): 123
- Survival Time ([1]; 10 mg/kg I.P.): 18.8 days
- T/C × 100 ([1]; 10 mg/kg I.P.): 140
- Survival Time ([1]; 20 mg/kg I.P.): 24.3 days
- T/C × 100 ([1]; 20 mg/kg I.P.): 181
- Survival Time ([1]; 40 mg/kg I.P.): 25.3 days
- T/C × 100 ([1]; 40 mg/kg I.P.): 189
- Survival Time ([1]; 60 mg/kg I.P.): 28.8 days
- T/C × 100 ([1]; 60 mg/kg I.P.): 215
- Survival Time ([1]; 80 mg/kg I.P.): 29.0 days
- T/C × 100 ([1]; 80 mg/kg I.P.): 216
- Survival Time ([1]; 100 mg/kg I.P.): 31.7 days
- T/C × 100 ([1]; 100 mg/kg I.P.): 237
- Solubility of a 2-mg sample (Solubility [2]; CHCl3): very slightly soluble or insoluble
- Solubility of a 2-mg sample (Solubility [2]; acetone): very slightly soluble or insoluble
- Solubility of a 2-mg sample (Solubility [2]; cyclopentanone): very slightly soluble or insoluble
- Solubility of a 2-mg sample (Solubility [2]; dimethylformamide): very slightly soluble or insoluble
- Solubility of a 2-mg sample (Solubility [2]; dimethylsulfoxide): very slightly soluble or insoluble
- Solubility of a 2-mg sample (Solubility [2]; ethanol): very slightly soluble or insoluble
- Solubility of a 2-mg sample (Solubility [2]; heptane): very slightly soluble or insoluble
- Solubility of a 2-mg sample (Solubility [2]; t-butanol): very slightly soluble or insoluble
- Solubility of a 2-mg sample (Solubility [2]; tetrahydrofuran): very slightly soluble or insoluble
- Solubility in CH3OH (Solubility [3]; CH3OH): ~ 0.2 mg/ml
- Solubility in water (Solubility [3]; water): ~ 175 mg/ml

Reference: US4428943A, “(N-Phosphonacetyl-L-aspartato) (1,2-diaminocyclohexane)platinum(II) or alkali metal salt” (priority 1981, dated 1984)
